Reference: US10434083B2, “Transmammary delivery of cyclooxygenase-2 inhibitors for analgesia in neonates” (Iowa State University Research Foundation, Inc., priority 2018, dated 2019)

Assay: in vivo
Conditions: female, Yorkshire×Landrace, swine
Procedure: Tissue concentrations of firocoxib and its descyclopropylmethyl metabolite were determined using high-pressure liquid chromatography (Agilent 1100 Pump, Column Compartment and Autosampler, Agilent Technologies, Santa Clara, Calif., USA) with mass spectrometry detection (LTQ Ion Trap, Thermo Scientific, San Jose, Calif., USA). The tissue samples analysed were muscle, injection site, kidney, liver, and fat. Eight calibration spikes were prepared in blank porcine tissue in the concentration range of 0.05-10 μg/g. The tissue samples were thawed and homogenized in a Waring blender before extraction and analysis. […]
Plasma and tissue firocoxib concentrations were determined using high-pressure liquid chromatography (Agilent 1100 Pump, Column Compartment and Autosampler, Agilent Technologies, Santa Clara, Calif.) with mass spectrometry detection (LTQ Ion Trap, Thermo Scientific, San Jose, Calif.). […] Full scan MS was used for analyte detection and three fragment ions were used for quantitation of each analyte species. […] Firocoxib and d6-firocoxib were analyzed in positive ion mode. […]
For plasma samples, the calibration curves had correlation coefficients (R^2) exceeding 0.995 across the concentration range. […] The limit of quantitation of the analysis was 1.0 ng/mL, with a limit of detection of 0.2 ng/mL. […]

## CC1(C)OC(=O)C(OCC2CC2)=C1c1ccc(S(C)(=O)=O)cc1 [firocoxib]
  concentration at 21 d: ≤ 50 ng/g
